Laboratory results as given in patent US20240059689A1, “PURINE DERIVATIVES AS ANTICANCER AGENTS” (Tango Therapeutics, Inc., priority 2021, published 2024).

Legend:
MDA-MB-436 = assay: Viability assay, BRCA1 mutant cell line MDA-MB-436; type: cell-based; conditions: Homo sapiens, MDA-MB-436, viability, BRCA1 mutant MDA-MB-436; read-out: MDA-MB-436 rel IC50
Text: (§1) Table 1 also indicates IC50 values in a viability assay for a non-isogenic pair of BRCA1 mutant (column 5-MDA-MB-436) and BRCA1 WT (column 6—HCC1954) cell lines. These values indicate the effect of treatment with compound on cell survival.

USP1-UAF1 = USP1-UAF1 (Homo sapiens, UniProt O94782); assay: Ubiquitin Rhodamine assay of USP1-UAF1 activity; type: biochemical
Description: Certain compounds of the disclosure were assessed for USP1-UAF1 activity in a Ubiquitin Rhodamine assay as described in Biology Example 1.

monoubiquitinated PCNA = assay: AlphaLISA assay measuring monoubiquitinated PCNA in MDA-MB-436; type: cell-based; conditions: Homo sapiens, MDA-MB-436, monoubiquitinated PCNA, read-out: Alpha Lisa IC50
Text: Table 1 also indicates IC50 values for exemplary compounds in an AlphaLISA assay measuring monoubiquitinated PCNA in a BRCA1 mutant cell line (MDA-MB-436; column 7).

HCC1954 = assay: Viability assay, BRCA1 WT cell line HCC1954; type: cell-based; conditions: Homo sapiens, HCC1954, viability, read-out: HCC1954 rel IC50
Text: as §1

USP1-UAF1, sequence (O94782 whole entry): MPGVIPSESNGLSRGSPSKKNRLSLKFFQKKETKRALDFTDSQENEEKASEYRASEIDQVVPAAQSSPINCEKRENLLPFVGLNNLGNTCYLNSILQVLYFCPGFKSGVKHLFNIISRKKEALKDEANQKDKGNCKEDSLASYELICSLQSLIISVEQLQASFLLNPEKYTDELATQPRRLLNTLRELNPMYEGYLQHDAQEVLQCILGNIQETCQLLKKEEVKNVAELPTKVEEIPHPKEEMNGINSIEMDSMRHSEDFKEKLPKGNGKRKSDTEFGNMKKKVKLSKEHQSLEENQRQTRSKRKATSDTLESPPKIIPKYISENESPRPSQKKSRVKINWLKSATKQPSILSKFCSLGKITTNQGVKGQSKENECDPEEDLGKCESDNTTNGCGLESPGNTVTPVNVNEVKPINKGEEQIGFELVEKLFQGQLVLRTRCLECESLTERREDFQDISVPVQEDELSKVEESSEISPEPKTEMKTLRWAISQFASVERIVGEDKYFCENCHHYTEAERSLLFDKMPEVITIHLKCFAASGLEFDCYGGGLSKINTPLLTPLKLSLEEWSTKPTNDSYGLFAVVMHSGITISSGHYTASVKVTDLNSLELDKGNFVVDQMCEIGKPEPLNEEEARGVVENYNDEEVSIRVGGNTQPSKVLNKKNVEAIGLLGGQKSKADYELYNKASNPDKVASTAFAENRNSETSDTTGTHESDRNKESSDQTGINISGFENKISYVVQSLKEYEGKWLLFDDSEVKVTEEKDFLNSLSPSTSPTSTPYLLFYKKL
USP1-UAF1, sequence (Q8TAF3 whole entry partner): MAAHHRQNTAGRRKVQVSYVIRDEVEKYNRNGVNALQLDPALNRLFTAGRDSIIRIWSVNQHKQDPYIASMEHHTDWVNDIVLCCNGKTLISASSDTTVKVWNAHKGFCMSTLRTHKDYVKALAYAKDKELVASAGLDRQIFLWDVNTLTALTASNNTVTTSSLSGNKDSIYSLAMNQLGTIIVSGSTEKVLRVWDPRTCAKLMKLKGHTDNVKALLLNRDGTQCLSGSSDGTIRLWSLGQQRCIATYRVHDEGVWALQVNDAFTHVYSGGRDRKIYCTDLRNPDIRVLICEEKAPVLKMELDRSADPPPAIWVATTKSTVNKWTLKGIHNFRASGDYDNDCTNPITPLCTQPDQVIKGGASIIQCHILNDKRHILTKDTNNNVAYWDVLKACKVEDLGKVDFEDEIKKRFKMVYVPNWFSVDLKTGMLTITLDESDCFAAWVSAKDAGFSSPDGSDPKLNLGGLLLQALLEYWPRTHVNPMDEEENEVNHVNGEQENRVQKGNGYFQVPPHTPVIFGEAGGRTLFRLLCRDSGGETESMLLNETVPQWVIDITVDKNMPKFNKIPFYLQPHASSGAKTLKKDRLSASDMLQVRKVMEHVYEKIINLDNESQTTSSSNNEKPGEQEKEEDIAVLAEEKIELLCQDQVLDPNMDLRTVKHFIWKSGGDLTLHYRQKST

| Compound | IC50 (MDA-MB-436) | IC50 (USP1-UAF1) | IC50 (monoubiquitinated PCNA) | IC50 (HCC1954) |
| --- | --- | --- | --- | --- |
| COc1ncnc(C2CC2)c1-c1ncc2c(n1)n([C@H](C)c1ccc(-c3nc(C(F)(F)F)cn3C)cc1)c(=N)n2CC(F)(F)F [Example T-143, (R)-2-(4-cyclopropyl-6-methoxypyrimidin-5-yl)-9-(1-(4-(1-methyl-4-(trifluoromethyl)-1H-imidazol-2-yl)phenyl)ethyl)-7-(2,2,2-trifluoroethyl)-7,9-dihydro-8H-purin-8-imine] | < 100 nM | 30 to 100 nM | < 100 nM | ≥ 10000 nM |
| COc1ncnc(C(F)(F)F)c1-c1ncc2c(n1)n(Cc1ccc(-c3nc(C(F)(F)F)cn3C)cc1)c(=N)n2CC(F)(F)F [Example T-144, 2-[4-methoxy-6-(trifluoromethyl)pyrimidin-5-yl]-9-[[4-[1-methyl-4-(trifluoromethyl)imidazol-2-yl]phenyl]methyl]-7-(2,2,2-trifluoroethyl)purin-8-imine] | 100 to 250 nM | 30 to 100 nM | 100 to 250 nM | ≥ 10000 nM |
| COc1ncnc(C(F)(F)F)c1-c1ncc2c(n1)n(Cc1ccc(-n3nc(C(F)(F)F)cc3OC)cc1)c(=N)n2CC(F)(F)F [Example T-145, 9-[[4-[5-methoxy-3-(trifluoromethyl)pyrazol-1-yl]phenyl]methyl]-2-[4-methoxy-6-(trifluoromethyl)pyrimidin-5-yl]-7-(2,2,2-trifluoroethyl)purin-8-imine] | 100 to 250 nM | 30 to 100 nM | < 100 nM | 250 to 10000 nM |

Second part, the compound after the results:

| IC50 (MDA-MB-436) | IC50 (USP1-UAF1) | IC50 (monoubiquitinated PCNA) | IC50 (HCC1954) | Compound |
| --- | --- | --- | --- | --- |
| 100 to 250 nM | 100 to 10000 nM | 100 to 250 nM | ≥ 10000 nM | COc1nccc(C2CC2)c1-c1ncc2c(n1)n(Cc1ccc(-c3nc(C(F)(F)F)cn3C)cc1)c(=N)n2CC(F)(F)F [Example T-141, 2-(4-cyclopropyl-2-methoxy-3-pyridyl)-9-[[4-[1-methyl-4-(trifluoromethyl)imidazol-2-yl]phenyl]methyl]-7-(2,2,2-trifluoroethyl)purin-8-imine] |
| 100 to 250 nM | 100 to 10000 nM | 100 to 250 nM | ≥ 10000 nM | COc1ncnc(C2CC2)c1-c1ncc2c(n1)n([C@@H](C)c1ccc(-c3nc(C(F)(F)F)cn3C)cc1)c(=N)n2C [Example T-142, 2-(4-cyclopropyl-6-methoxy-pyrimidin-5-yl)-7-methyl-9-[(1S)-1-[4-[1-methyl-4-(trifluoromethyl)imidazol-2-yl]phenyl]ethyl]purin-8-imine] |
| < 100 nM | 30 to 100 nM | < 100 nM | ≥ 10000 nM | COc1nc(C)nc(C2CC2)c1-c1ncc2c(n1)n(Cc1ccc(-c3nc(C(F)(F)F)cn3C)cc1)c(=N)n2C [Example T-146, 2-(4-cyclopropyl-6-methoxy-2-methyl-pyrimidin-5-yl)-7-methyl-9-[[4-[1-methyl-4-(trifluoromethyl)imidazol-2-yl]phenyl]methyl]purin-8-imine] |
| 100 to 250 nM | 30 to 100 nM | < 100 nM | ≥ 10000 nM | Cn1cc(C(F)(F)F)nc1-c1ccc(Cn2c(=N)n(CC(F)(F)F)c3cnc(-c4c(OCF)ncnc4C4CC4)nc32)cc1 [Example T-147, 2-[4-cyclopropyl-6-(fluoromethoxy)pyrimidin-5-yl]-9-[[4-[1-methyl-4-(trifluoromethyl)imidazol-2-yl]phenyl]methyl]-7-(2,2,2-trifluoroethyl)purin-8-imine] |
